Where “and” joins values, the source holds several entries; their conditions need not be identical. Equal entries are not always repeated.
Conditions: Fluid (supercritical or subcritical phases); for mass density: Buoyancy - hydrostatic balance with magnetic suspension - one sinker; for viscosity: Vibrating wire viscometer

N#N [nitrogen]
Conditions | mass density | viscosity [mPa·s]
293.11 K, 1737.3 kPa | 20.04 kg/m3 | 0.01776
293.11 K, 8684.1 kPa | 100.062 kg/m3 | 0.01931
293.11 K, 12288 kPa | 140.108 kg/m3 | 0.02039
293.12 K, 3456.5 kPa | 39.956 kg/m3 | 0.01807
293.12 K, 5188.4 kPa | 60.007 kg/m3 | 0.01843
293.12 K, 6932.1 kPa | 80.084 kg/m3 | 0.01884
293.12 K, 16079 kPa | 180.081 kg/m3 | 0.02168
293.12 K, 22359 kPa | 240.226 kg/m3 | 0.02399
293.12 K, 24666 kPa | 260.273 kg/m3 | 0.0249
293.13 K, 14176 kPa | 160.309 kg/m3 | 0.02101
293.14 K, 1741.7 kPa | 20.088 kg/m3 | 0.01775
293.14 K, 5190.1 kPa | 60.028 kg/m3 | 0.01841
293.14 K, 5191.3 kPa | 60.033 kg/m3 | 0.0184
293.14 K, 6919.8 kPa | 79.938 kg/m3 | 0.01881
293.14 K, 6919.9 kPa | 79.937 kg/m3 | 0.01881
293.14 K, 18079 kPa | 200.088 kg/m3 | 0.02238
293.15 K, 168.17 kPa | 1.9327 kg/m3 | 0.01754
293.15 K, 257.03 kPa | 2.9592 kg/m3 | 0.01755
293.15 K, 257.04 kPa | 2.9569 kg/m3 | 0.01755
293.15 K, 260.16 kPa | 2.9879 kg/m3 | 0.01754
293.15 K, 348.59 kPa | 4.0063 kg/m3 | 0.01757
293.15 K, 348.6 kPa | 4.0116 kg/m3 | 0.01756
293.15 K, 434.63 kPa | 4.9978 kg/m3 | 0.01756
293.15 K, 438.44 kPa | 5.0442 kg/m3 | 0.01758
293.15 K, 438.45 kPa | 5.045 kg/m3 | 0.01758
293.15 K, 865.03 kPa | 9.9564 kg/m3 | 0.01763
293.15 K, 865.04 kPa | 9.9572 kg/m3 | 0.01763
293.15 K, 867.69 kPa | 9.9877 kg/m3 | 0.01763
293.15 K, 3452.3 kPa | 39.892 kg/m3 | 0.01805
293.15 K, 8683.4 kPa | 100.04 kg/m3 | 0.01928
293.16 K, 87.06 kPa | 1.0006 kg/m3 | 0.0175
293.16 K, 174.08 kPa | 2.0011 kg/m3 | 0.01753
293.16 K, 6917.3 kPa | 79.905 kg/m3 | 0.01881
293.16 K, 8683.4 kPa | 100.03 kg/m3 | 0.01928
293.16 K, 10467 kPa | 120.042 kg/m3 | 0.01983
293.16 K, 10724 kPa | 122.91 kg/m3 and 122.9 kg/m3 | 0.01987
293.16 K, 20166 kPa | 220.109 kg/m3 | 0.02316
293.16 K, 27067 kPa | 279.903 kg/m3 | 0.02585
293.16 K, 30306 kPa | 304.692 kg/m3 | 0.02713
293.17 K, 347.38 kPa | 3.995 kg/m3 | 0.01756
293.17 K, 434.86 kPa | 5.0007 kg/m3 | 0.01757
293.17 K, 30306 kPa | 304.691 kg/m3 | 0.02714
293.18 K, 69.62 kPa | 0.79943 kg/m3 | 0.01749
423.09 K, 1261.4 kPa | 9.9995 kg/m3 | 0.02309
423.09 K, 2533.5 kPa | 20.001 kg/m3 | 0.0232
423.09 K, 7760.6 kPa | 60.009 kg/m3 | 0.02382
423.09 K, 19172 kPa | 140.043 kg/m3 | 0.02569
423.09 K, 25569 kPa | 180.07 kg/m3 | 0.02695
423.1 K, 377.31 kPa | 2.9994 kg/m3 | 0.02301
423.1 K, 629.65 kPa | 5.0007 kg/m3 | 0.02304
423.1 K, 5117.5 kPa | 40.01 kg/m3 | 0.02347
423.1 K, 22320 kPa | 160.186 kg/m3 | 0.02629
423.11 K, 100.56 kPa | 0.79993 kg/m3 | 0.02294
423.11 K, 125.69 kPa | 0.99956 kg/m3 | 0.02295
423.11 K, 251.45 kPa | 1.9998 kg/m3 | 0.02299
423.11 K, 10470 kPa | 79.969 kg/m3 | 0.0242
423.11 K, 13263 kPa | 99.939 kg/m3 | 0.02464
423.12 K, 503.26 kPa | 3.9997 kg/m3 | 0.02303
423.12 K, 16171 kPa | 120.044 kg/m3 | 0.02513
423.15 K, 30228 kPa | 206.995 kg/m3 | 0.02791
423.15 K, 30257 kPa | 207.176 kg/m3 | 0.02792
423.16 K, 30225 kPa | 206.975 kg/m3 | 0.02791
